Test [1] relates to MCAo mouse model of ischemic stroke. Briefly: Transient middle cerebral artery occlusion (MCAo), infarct ratio by TTC staining. Format: in vivo. As to conditions: 50 minutes MCAo, IP peptide at one and six hours after reperfusion, 24 h after reperfusion, mean±SEM (FIG. 6D). As to the method: Mice were anesthetized with isoflurane and the common carotid artery was exposed. A single-use silicon-coated suture (MCAo suture #602256PK10; Doccol Corporation, Sharron, Mass.) was advanced 8-9 mm into the internal carotid artery, occluding the MCA. The suture was secured with 6-0 silk ligatures for 50 minutes, then removed. Twenty-four hours following cerebral reperfusion, mice were sacrificed and four 2-mm coronal brain sections were obtained from each animal. Sections were stained with 0.05% 2,3,5-triphenyltetrazolium chloride (TTC) in PBS for 30 minutes at room temperature. Brain sections were digitally scanned following staining and a blinded experimenter measured infarct ratios (infarct area/total section area) using NIH ImageJ software. Visual representation of this protocol is in FIG. 6B.
The neuroprotective efficacy of TAT-DP-2 in vivo was next tested. […]
Twenty-four hours following cerebral reperfusion after MCAo, total infarct ratios were analyzed (FIG. 6B) in tetrazolium chloride-stained brain sections (FIGS. 6B and 6C). […] A different, blinded observer then analyzed each animal and assigned an objective murine neurological score (MNS; Table 3) to each mouse over a 42-day period. As the MNS is based solely on characteristic motor deficits developed following left MCAo, all animals initially scored zero on the scale.

The test system is the same in test [2]. In words: Murine neurological score (MNS) after MCAo. It counts as in vivo. As to conditions: 50 minutes left MCAo, IP injection at one and six hours post-reperfusion, versus scrambled control (FIG. 6E). As to the method: To analyze neurological deficits following MCA stroke, testing was performed by a blinded experimenter on additional cohorts, both at baseline (all initial scores were 0) and on post-stroke days 1, 2, 3, 5, 7, 10, 14, 21, 28, 35, and 42. An objective murine neurological score (Table 3) was assigned on each date, ranging from 0 (no neurological deficit) to 8 (stroke-related death) (Yeh et al., J Neurosci. 37: 5648-5658, 2017).
Twenty-four hours following cerebral reperfusion after MCAo, total infarct ratios were analyzed (FIG. 6B) in tetrazolium chloride-stained brain sections (FIGS. 6B and 6C). […] Preparation of peptides, MCAo surgery and injection, as well as infarct analysis were all randomized and performed blindly. A second cohort of mice was subjected to 50-minute MCAo, followed by TAT-DP-2 or TAT-Sc-2 injection at one and six-hours post-reperfusion (FIG. 6A). A different, blinded observer then analyzed each animal and assigned an objective murine neurological score (MNS; Table 3) to each mouse over a 42-day period. As the MNS is based solely on characteristic motor deficits developed following left MCAo, all animals initially scored zero on the scale.

The values below come from patent US11673916B2, “Neuroprotective peptides and methods of their use” (University of Pittsburgh—Of the Commonwealth System of …, priority 2020, dated 2023).

Take “YGRKKRRQRRRDFSSIST [TAT-Sc-2, TAT-linked scramble control peptide]”: the “mean total infarct ratio” value in test [1] is 0.121±0.009.

“YGRKKRRQRRRSIDSFTS [TAT-DP-2, TAT-linked declustering peptide 2]”: in test [2], the “murine neurological score (MNS) over 42 days post-MCAo” value is “significant preservation of favorable neurological score”. Further, the “mean total infarct ratio” value in test [1] turned out to be 0.071±0.020.
